Key:
Setaria viridis = assay: LTP post-emergence greenhouse screen
Protocol: (§5) A basic panel of eight weed species (Table 3) sowed in 4×4×7 cm plastic pots containing a garden mix (klasmann). Each specie was sowed in a separate pot. In each pot, 10-15 seeds were sowed according to the specie viability. Timing of application determined at a 1-2 true leaf stage. The plants grew for 30 days in a controlled greenhouse (26±2° C. day, 20±2° C. night). Flood irrigation (tap water+Shefer 5:3:8 8 mM) was given at a 50% water content by weight. Two days before application, the tested plants thinned down to three plants per pot. Compounds were soluble in water (DDW), and commercial herbicide control was soluble in formulation B (Table 4). Before application, 1% (v/v) crop oil and 0.02% (v/v) surfactant (Tergitol™ 15-S-7) were added to the solution. Application was conducted with an industrial sprayer (TeeJet 6502E nozzle) at a rate of 2 kg/ha and spray volume of 4801/ha. Plants were evaluated at 3 time points (4, 8, 12 days after application (DAA)). At each time point, visual phenotyping was recorded using a scale of 0-6 (0: no visible effect, 6: maximum effect). At 12 DAA, plants foliage was harvested, dried and weighed for dry weight analysis.
(§6) Post-emergence advanced wide panel experiment included 24 weed species (Table 5). Application was conducted at 2 rates of 2 kg/ha and 0.25 kg/ha and spray volume of 480 l/ha. Visual phenotyping was recorded at 4, 11, 17 and 20 DAA using a scale of 0-6 (0: no visible effect, 6: maximum effect). At 21 DAA, plants foliage was harvested, dried, and weighed for dry weight analysis. All experiments included an untreated control, a solvent control, and a positive control (commercial herbicide A.I.). Statistical analysis for visual phenotyping determined by a median value of ≥3.5 and Fisher test (pval≤0.05). Statistical analysis for dry weight determined by % inhibition ≥50 and T test (pval≤0.05), as well as Wilcox test (pval≤0.05).

Digitaria sanguinalis [1] = assay: LTP post-emergence greenhouse screen
Protocol: as §5, §6

[2] = test system: monocot and eudicot weeds species; assay: LTP weed panel, summary in words; type: in vivo; details: for growth inhibition (in words): mainly in pre-emergence applications
Echinochloa crus-galli [3] = assay: LTP post-emergence greenhouse screen
Protocol: as §5
(§7) All experiments included an untreated control, a solvent control, and a positive control (commercial herbicide A.I.). Statistical analysis for visual phenotyping determined by a median value of ≥3.5 and Fisher test (pval≤0.05). Statistical analysis for dry weight determined by % inhibition ≥50 and T test (pval≤0.05), as well as Wilcox test (pval≤0.05).

Lolium perenne [4] = assay: LTP post-emergence greenhouse screen
Protocol: (§8) A basic panel of eight weed species (Table 3) sowed in 4×4×7 cm plastic pots containing a garden mix (klasmann). Each specie was sowed in a separate pot. In each pot, 10-15 seeds were sowed according to the specie viability. Timing of application determined at a 1-2 true leaf stage. The plants grew for 30 days in a controlled greenhouse (26±2° C. day, 20±2° C. night). Flood irrigation (tap water+Shefer 5:3:8 8 mM) was given at a 50% water content by weight. Two days before application, the tested plants thinned down to three plants per pot. Compounds were soluble in water (DDW), and commercial herbicide control was soluble in formulation B (Table 4). Before application, 1% (v/v) crop oil and 0.02% (v/v) surfactant (Tergitol™ 15-S-7) were added to the solution. […] Plants were evaluated at 3 time points (4, 8, 12 days after application (DAA)). At each time point, visual phenotyping was recorded using a scale of 0-6 (0: no visible effect, 6: maximum effect). […]
as §7

Alopecurus monureide's = assay: LTP post-emergence greenhouse screen
Protocol: as §5, §6

Lolium multiflorum [5] = assay: LTP post-emergence greenhouse screen
Protocol: as §8, §7

[6] = test system: monocot and dicot model plants; assay: HTPS model plants, summary in words; type: in vivo; details: HTPS systems where they were tested
Protocol: Arabidopsis thaliana seeds were sown in 96 well plates filled with irrigated Sweet sand (10%>clay) that is washed from salts and minerals using tap water. 5-10 seeds were sown in the center of each well. 7-8 days post sowing, at 2 true leaves stage, thinning out was performed to ensure that compound application is done on a single plant per well. The plates were placed in a controlled greenhouse in a random order inside a bath which allows flooding irrigation with tap water supplemented with a fertilizer. Applied compounds were dissolved into a final solution of 50% acetone, 49.9% DDW, 0.1% tween-20.
A 96 well plate was used as a stock plate for preparing application solutions for 8 repeats. Each row contained different concentrations per chemical. Maximal concentration for application was 1.5 kg/ha and dilution factor is 2.5. Chemical application was performed one day after thinning out in a chemical hood. 5 μL applied on first two true leaves in each well using 12 channel pipettes. […]
(§1) Compounds 101, 110, 112, 119, 124, 125, 146, 154, 157, 172, 170, 169, 112, and 166 were applied in either or both pre- and post-emergence mode to either or both monocot and dicot model plants, following the methods described above. The compounds were applied as a gradient of concentrations as listed above, from which the ED50 was calculated.

Echinochloa colona [7] = assay: LTP post-emergence greenhouse screen
Protocol: as §5, §6

Poa annua [8] = assay: LTP pre-emergence greenhouse screen; type: in vivo
Protocol: (§2) Sowing was performed one day before application.
(§3) Percentage of emergence was evaluated at 15 DAA.

Phalaris paradoxa = assay: LTP pre-emergence greenhouse screen; type: in vivo
Protocol: as §2, §3

Lolium multiflorum [9] = assay: LTP pre-emergence greenhouse screen; type: in vivo
Protocol: as §2, §3

Echinochloa crus-galli [10] = assay: LTP pre-emergence greenhouse screen; type: in vivo
Protocol: as §2, §3

Lolium perenne [11] = assay: LTP pre-emergence greenhouse screen; type: in vivo
Protocol: as §2, §3

Digitaria sanguinalis [12] = assay: LTP pre-emergence greenhouse screen; type: in vivo
Protocol: as §2, §3

Echinochloa colona [13] = assay: LTP pre-emergence greenhouse screen; type: in vivo
Protocol: as §2, §3

Alopecurus myosuroides = assay: LTP pre-emergence greenhouse screen; type: in vivo
Protocol: as §2, §3

Poa annua [14] = assay: LTP post-emergence greenhouse screen
Protocol: as §5, §6

Arabidopsis thaliana [15] = assay: HTPS post-emergence on miniature dicot model plants; type: in vivo; details: green area (RGB), maximal concentration 1.5 kg/ha, read-out: Max inhibition (%)
Protocol: Arabidopsis thaliana seeds were sown in 96 well plates filled with irrigated Sweet sand (10%>clay) that is washed from salts and minerals using tap water. 5-10 seeds were sown in the center of each well. 7-8 days post sowing, at 2 true leaves stage, thinning out was performed to ensure that compound application is done on a single plant per well. The plates were placed in a controlled greenhouse in a random order inside a bath which allows flooding irrigation with tap water supplemented with a fertilizer. Applied compounds were dissolved into a final solution of 50% acetone, 49.9% DDW, 0.1% tween-20. A 96 well plate was used as a stock plate for preparing application solutions for 8 repeats. Each row contained different concentrations per chemical. Maximal concentration for application was 1.5 kg/ha and dilution factor is 2.5. Chemical application was performed one day after thinning out in a chemical hood. 5 μL applied on first two true leaves in each well using 12 channel pipettes. Data collection: RGB (red, green, blue) data for green area per well was documented using camera. Data is collected at a few time points during the experiment: one day after thinning and before chemical application, two-, six- or nine-days post application. During the last two documentations, visual phenotyping was performed. Data analysis: Given RGB results and visual phenotype scores, a student t-test conducted to compare between treatment and control performance for continuous data (RGB) and Fisher exact test to analyze the non-continuous data (phenotypic scores). Dose-Response curves are generated for each treatment to infer ED50 and max. inhibition parameters, using treatment's log concentration range as the […] variable and normalized green area. Plate imaging performed at 11 and 18 DAA. RGB data for green area per well was documented and used to extract % inhibition. Dose-Response curves were built for each treatment to infer EC50, EC75 and EC90 parameters, using treatment's log concentration range as the independent variable and normalized green area as the dependent variable. Treatments were compared to controls performance given RGB results and using student's t-test (p-val≤0.05). Compounds 101, 110, 112, 119, 124, 125, 146, 154, 157, 172, 170, 169, 112, and 166 were applied in either or both pre- and post-emergence mode to either or both monocot and dicot model plants, following the methods described above. The compounds were applied as a gradient of concentrations as listed above, from which the ED50 was calculated.

Amaranthus tuberculatus = assay: LTP post-emergence greenhouse screen; type: in vivo
Galium aparine = assay: LTP post-emergence greenhouse screen
Protocol: as §8, §7

Amaranthus palmeri [16] = assay: LTP pre-emergence greenhouse screen; type: in vivo
Protocol: as §2, §3

Matricaria chamomilla = assay: LTP pre-emergence greenhouse screen; type: in vivo
Protocol: as §2, §3

Eragrostis teff = assay: HTPS pre-emergence on monocot model plants; type: in vivo; details: green area (RGB)
Protocol: (§4) A 96 well plate was used as a stock plate for preparing application solutions for 8 repeats. Each row contained different concentrations per chemical. Maximal concentration for application was 1.5 kg/ha and dilution factor is 2.5. Chemical application was performed one day after thinning out in a chemical hood. 5 μL applied on first two true leaves in each well using 12 channel pipettes. Data collection: RGB (red, green, blue) data for green area per well was documented using camera. Data is collected at a few time points during the experiment: one day after thinning and before chemical application, two-, six- or nine-days post application. During the last two documentations, visual phenotyping was performed. Data analysis: Given RGB results and visual phenotype scores, a student t-test conducted to compare between treatment and control performance for continuous data (RGB) and Fisher exact test to analyze the non-continuous data (phenotypic scores). Dose-Response curves are generated for each treatment to infer ED50 and max. inhibition parameters, using treatment's log concentration range as the dependent variable and normalized green area.
These experiments are conducted similarly except that either Arabidopsis thaliana or Eragrostis teff seeds were sowed (5-10 or 5-7, respectively), plant thinning out was not performed, compound dissolved into a final solution of 50% acetone, 49.9% DDW, compound application was done at 30 μL volume per well directly on sowed soil before plant emergence and data was collected 10 or 7 days after chemical application on dicot or monocot plants, respectively.
Plate imaging performed at 11 and 18 DAA. RGB data for green area per well was documented and used to extract % inhibition. […]
as §1

Arabidopsis thaliana [17] = assay: HTPS pre-emergence on dicot model plants; type: in vivo; details: green area (RGB)
Protocol: as §4, with “Dose-Response curves are generated for each treatment to infer ED50 and max. inhibition parameters, using treatment's log concentration range as the dependent variable and normalized green area.” left out
as §1

Amaranthus palmeri [18] = assay: LTP post-emergence greenhouse screen
Protocol: as §8, §7

Amaranthus retroflexus = assay: LTP pre-emergence greenhouse screen; type: in vivo
Protocol: as §2, §3

Compound: CC(O)C(N)C/C=C/CC(=O)O (stereo not shown) [Compound 101]
- DAB: disturbed apical bud (Setaria viridis): IG (60), DAB (60)
- IG: inhibited growth (Setaria viridis): IG (60), DAB (60)
- DAB: disturbed apical bud (Digitaria sanguinalis [1]): IG (80), DAB (80),
- Drd: disturbed root growth (Digitaria sanguinalis [1]): Drd (80)
- IG: inhibited growth (Digitaria sanguinalis [1]): IG (80), DAB (80),
- control of weeds (in words) ([2]; monocot and eudicot weeds species, post-emergence and pre-emergence, most of the species tested): excellent control
- DAB: disturbed apical bud (Echinochloa crus-galli [3]): 60
- Drd: disturbed root growth (Echinochloa crus-galli [3]): Drd (80)
- IG: inhibited growth (Echinochloa crus-galli [3]): 80
- Drd: disturbed root growth (Lolium perenne [4]): 80
- IG: inhibited growth (Lolium perenne [4]): 60
- Bl: bleaching (Alopecurus monureide's): 60
- DAB: disturbed apical bud (Alopecurus monureide's): IG (80), DAB (80),
- Drd: disturbed root growth (Alopecurus monureide's): 80
- IG: inhibited growth (Alopecurus monureide's): IG (80), DAB (80),
- Drd: disturbed root growth (Lolium multiflorum [5]): Drd (60)
- control (in words) [6]: excellent to very good control
- DAB: disturbed apical bud (Echinochloa colona [7]): 60
- Drd: disturbed root growth (Echinochloa colona [7]): Drd (80)
- IG: inhibited growth (Echinochloa colona [7]): 80
- IG: inhibited growth (Poa annua [8]): IG (100)
- IG: inhibited growth (Phalaris paradoxa): IG (80)
- IG: inhibited growth (Lolium multiflorum [9]): IG (100)
- IG: inhibited growth (Echinochloa crus-galli [10]): IG (100)
- IG: inhibited growth (Lolium perenne [11]): IG (80)
- IG: inhibited growth (Digitaria sanguinalis [12]): IG (100)
- IG: inhibited growth (Echinochloa colona [13]): IG (100)
- IG: inhibited growth (Alopecurus myosuroides): IG (80)
- Drd: disturbed root growth (Poa annua [14]): IG (80), Drd (80)
- IG: inhibited growth (Poa annua [14]): IG (80), Drd (80)
- inhibition at up to 1500 g/ha (Arabidopsis thaliana [15]): 100%

Compound: C[C@@H](O)[C@@H](N)/C=C/C=C/C(=O)O [Compound 110]
- Drd: disturbed root growth (Amaranthus tuberculatus): Drd (80)
- activity on dicots and monocots (in words) ([2]; applied pre-emergence): good to moderate activity
- Bl: bleaching (Galium aparine): Bl (60)
- control (in words) [6]: excellent to very good control
- IG: inhibited growth (Poa annua [8]): IG (60)
- IG: inhibited growth (Amaranthus palmeri [16]): IG (80)
- IG: inhibited growth (Matricaria chamomilla): IG (60)
- inhibition at up to 1500 g/ha (Arabidopsis thaliana [15]): 100%

Compound: NC1(C/C=C/CC(=O)O)CC1 [Compound 112]
- Max inhibition (%) (Eragrostis teff): 51%
- Max inhibition (%) (Arabidopsis thaliana [17]): 100%
- inhibition at up to 1500 g/ha (Arabidopsis thaliana [15]): 87.5%

Compound: NC1CCC/C(=C\CCC(=O)O)C1 (stereo not shown) [Compound 119]
- growth inhibition (in words) [2]: very good to moderate growth inhibition
- IG: inhibited growth (Amaranthus palmeri [16]): IG (80)
- IG: inhibited growth (Echinochloa colona [13]): IG (60)
- inhibition at up to 1500 g/ha (Arabidopsis thaliana [15]): 100%

Compound: NC1CCCC(/C=C/CC(=O)O)C1 (stereo not shown) [Compound 124]
- growth inhibition (in words) [2]: very good to moderate growth inhibition
- IG: inhibited growth (Poa annua [8]): IG (100)
- IG: inhibited growth (Amaranthus palmeri [16]): IG (80)
- IG: inhibited growth (Echinochloa colona [13]): IG (100)
- IG: inhibited growth (Alopecurus myosuroides): IG (80)
- inhibition at up to 1500 g/ha (Arabidopsis thaliana [15]): 100%

Compound: NC1(C/C=C/CC(=O)O)CCC1 [Compound 125]
- IG: inhibited growth (Setaria viridis): IG (60)
- growth inhibition (in words) [2]: very good to moderate growth inhibition
- IG: inhibited growth (Amaranthus palmeri [18]): IG (60)
- IG: inhibited growth (Poa annua [8]): IG (100)
- IG: inhibited growth (Amaranthus palmeri [16]): IG (80)
- IG: inhibited growth (Lolium perenne [11]): IG (80)
- IG: inhibited growth (Matricaria chamomilla): IG (60)
- IG: inhibited growth (Alopecurus myosuroides): IG (60)
- IG: inhibited growth (Poa annua [14]): IG (60)
- inhibition at up to 1500 g/ha (Arabidopsis thaliana [15]): 100%

Compound: NC(C/C=C/CC(=O)O)C1CC1 (stereo not shown) [Compound 146]
- growth inhibition (in words) [2]: very good to moderate growth inhibition
- Max inhibition (%) (Eragrostis teff): 100%
- IG: inhibited growth (Poa annua [8]): IG (60)
- IG: inhibited growth (Amaranthus palmeri [16]): IG (80)
- IG: inhibited growth (Alopecurus myosuroides): IG (60)
- inhibition at up to 1500 g/ha (Arabidopsis thaliana [15]): 100%

Compound: NC1CCCC(C#CCC(=O)O)C1 (stereo not shown) [Compound 154]
- growth inhibition (in words) [2]: very good to moderate growth inhibition
- IG: inhibited growth (Poa annua [8]): IG (100)
- IG: inhibited growth (Amaranthus palmeri [16]): IG (80)
- IG: inhibited growth (Echinochloa colona [13]): IG (100)
- IG: inhibited growth (Alopecurus myosuroides): IG (80)
- inhibition at up to 1500 g/ha (Arabidopsis thaliana [15]): 100%

Compound: CC(C)C(N)C/C=C/CC(=O)O (stereo not shown) [Compound 157]
- inhibition at up to 1500 g/ha (Arabidopsis thaliana [15]): 100%

Compound: CCCC(N)C/C=C/CC(=O)O (stereo not shown) [Compound 166]
- Max inhibition (%) (Eragrostis teff): 47%
- inhibition at up to 1500 g/ha (Arabidopsis thaliana [15]): 75%

Compound: CC(N)CC/C=C/CC(=O)O (stereo not shown) [Compound 169]
- IG: inhibited growth (Amaranthus retroflexus): IG (80)
- inhibition at up to 1500 g/ha (Arabidopsis thaliana [15]): 100%

Compound: CC(N)CCC/C=C/C(=O)O (stereo not shown) [Compound 170]
- IG: inhibited growth (Amaranthus retroflexus): IG (90)
- inhibition at up to 1500 g/ha (Arabidopsis thaliana [15]): 100%

Compound: CC(O)C(N)/C=C/CCC(=O)O (stereo not shown) [Compound 172]
- inhibition at up to 1500 g/ha (Arabidopsis thaliana [15]): 100%

Source: patent US20250212875A1, “PESTICIDAL AND HERBICIDAL COMPOUNDS AND METHODS OF USE THEREOF” (AG PLENUS LTD, priority 2022, published 2025)
